From patent publication US8173704B2, “Difluorophenol derivatives and their use” (Bayer Pharma Aktiengesellschaft, priority 2005, dated 2012)
One block for each compound: values may come before it.

Assays:
saphenous artery rings = experiment: Vasorelaxant effect in vitro (phenylephrine-contracted artery rings); assay type: cell-based; details: rabbit saphenous artery rings, contraction induced by phenylephrine
Experimental: Rabbits are anesthetized and sacrificed by intravenous injection of thiopental sodium (about 50 mg/kg) and exsanguinated. The saphenous artery is removed and divided into rings 3 mm wide. The rings are mounted singly on in each case a pair of triangular hooks open at the end and made of 0.3 mm-thick special wire (Remanium®). Each ring is placed under an initial tension in 5 ml organ baths with Krebs-Henseleit solution which is at 37° C., is gassed with 95% O2/5% CO2 and has the following composition: NaCl 119 mM; KCl 4.8 mM; CaCl2×2H2O 1 mM; MgSO4×7 H2O 1.4 mM; KH2PO4 1.2 mM; NaHCO3 25 mM; glucose 10 mM; bovine serum albumin 0.001%. The force of contraction is detected with Statham UC2 cells, amplified and digitized via A/D converters (DAS-1802 HC, Keithley Instruments, Munich) and recorded in parallel on chart recorders. Contractions are induced by addition of phenylephrine.
After several (generally 4) control cycles, the substance to be investigated is added in each further run in increasing dosage, and the height of the contraction achieved under the influence of the test substance is compared with the height of the contraction reached in the last preceding run. The concentration necessary to reduce the contraction reached in the preceding control by 50% is calculated from this (IC50). The standard application volume is 5 μl. The proportion of DMSO in the bath solution corresponds to 0.1%.

[1] = target: T1, Heme-free sGC (recombinant soluble guanylate cyclase) (Rattus norvegicus, UniProt P20595); experiment: Stimulation of recombinant soluble guanylate cyclase (sGC) in vitro, heme-free enzyme; assay type: biochemical
T1 construct: made in house; host or cells: baculovirus/Sf9 insect cells
T1 sequence (P20595 1-619): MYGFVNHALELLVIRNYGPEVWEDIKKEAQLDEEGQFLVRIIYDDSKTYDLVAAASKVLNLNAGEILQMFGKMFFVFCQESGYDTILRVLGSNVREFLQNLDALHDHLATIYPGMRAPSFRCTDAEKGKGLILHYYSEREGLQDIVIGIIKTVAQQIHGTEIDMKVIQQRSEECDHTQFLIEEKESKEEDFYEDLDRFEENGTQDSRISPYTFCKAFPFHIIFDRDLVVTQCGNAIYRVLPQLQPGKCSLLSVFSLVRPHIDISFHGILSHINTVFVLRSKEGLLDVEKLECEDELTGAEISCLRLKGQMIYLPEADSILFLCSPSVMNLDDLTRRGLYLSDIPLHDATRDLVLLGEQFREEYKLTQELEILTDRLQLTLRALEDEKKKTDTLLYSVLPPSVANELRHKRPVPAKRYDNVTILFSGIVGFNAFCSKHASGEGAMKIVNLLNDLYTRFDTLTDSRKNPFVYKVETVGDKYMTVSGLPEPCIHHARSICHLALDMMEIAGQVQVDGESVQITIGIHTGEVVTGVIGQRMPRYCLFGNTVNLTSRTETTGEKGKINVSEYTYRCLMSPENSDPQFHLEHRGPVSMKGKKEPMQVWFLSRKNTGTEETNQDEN
T1 sequence (P19686 1-690 partner): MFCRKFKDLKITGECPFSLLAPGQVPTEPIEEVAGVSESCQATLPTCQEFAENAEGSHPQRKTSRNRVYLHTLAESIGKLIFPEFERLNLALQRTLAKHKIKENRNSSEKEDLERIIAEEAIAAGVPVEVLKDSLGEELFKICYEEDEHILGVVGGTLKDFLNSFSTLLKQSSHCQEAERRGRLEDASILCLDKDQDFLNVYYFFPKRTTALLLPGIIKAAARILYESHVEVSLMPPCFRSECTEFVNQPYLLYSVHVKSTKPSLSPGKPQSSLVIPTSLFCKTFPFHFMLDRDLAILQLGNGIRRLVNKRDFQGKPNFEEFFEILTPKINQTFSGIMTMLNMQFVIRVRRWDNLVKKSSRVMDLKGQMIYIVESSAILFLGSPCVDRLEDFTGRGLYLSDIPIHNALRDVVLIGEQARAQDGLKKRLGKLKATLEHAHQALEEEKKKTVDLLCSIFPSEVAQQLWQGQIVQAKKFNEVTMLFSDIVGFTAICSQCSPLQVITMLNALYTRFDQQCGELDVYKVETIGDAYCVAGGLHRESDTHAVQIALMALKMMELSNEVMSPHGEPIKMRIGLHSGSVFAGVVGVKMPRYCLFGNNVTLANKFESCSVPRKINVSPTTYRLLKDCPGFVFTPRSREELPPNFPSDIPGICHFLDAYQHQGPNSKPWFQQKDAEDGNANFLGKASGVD
Experimental: Investigations on the stimulation of recombinant soluble guanylate cyclase (sGC) by the compounds according to the invention with and without sodium nitroprusside, and with and without the heme-dependent sGC inhibitor 1H-1,2,4-oxadiazole-(4,3a)-quinoxalin-1-one (ODQ) are carried out by the method described in detail in the following reference: M. Hoenicka, E. M. Becker, H. Apeler, T. Sirichoke, H. Schroeder, R. Gerzer and J.-P. Stasch, “Purified soluble guanylyl cyclase expressed in a baculovirus/Sf9 system: Stimulation by YC-1, nitric oxide, and […]”, J. Mol. Med. 77 (1999), 14-23. The heme-free guanylate cyclase is obtained by adding Tween 20 to the sample buffer (0.5% in the final concentration).
(§1) The activation of sGC by a test substance is reported as n-fold stimulation of the basal activity.

[2] = target: T2, Heme-containing sGC (recombinant soluble guanylate cyclase) (Rattus norvegicus, UniProt P20595); experiment: Stimulation of recombinant soluble guanylate cyclase (sGC) in vitro, heme-containing enzyme; assay type: biochemical
T2 construct: made in house; host or cells: baculovirus/Sf9 insect cells
T2 sequence (P20595 1-619): T1 sequence (P20595 1-619)
T2 sequence (P19686 1-690 partner): T1 sequence (P19686 1-690 partner)
Source text: Hoenicka, E. M. Becker, H. Apeler, T. Sirichoke, H. Schroeder, R. Gerzer and J.-P. Stasch, “Purified soluble guanylyl cyclase expressed in a baculovirus/Sf9 system: Stimulation by YC-1, nitric oxide, and carbon oxide”, J. Mol. Med. 77 (1999), 14-23. The heme-free guanylate cyclase is obtained by adding Tween 20 to the sample buffer (0.5% in the final concentration).
as §1

[3] = 0.001 μM Example 13 + 10 μM ODQ

IC50 (saphenous artery rings): 0.3 µM
Structure (SMILES): O=C(O)CCCCC(/C=C/c1cc(F)ccc1OCc1ccc(-c2ccc(C(F)(F)F)cc2)cc1)Cc1cc(F)c(O)c(F)c1 (single isomer, unassigned) [Example 5, E-6-(3,5-Difluoro-4-hydroxybenzyl)-8-[5-fluoro-2-(4′-trifluoromethylbiphenyl-4-ylmethoxy)phenyl]oct-7-enoic acid]

IC50 (saphenous artery rings; Oryctolagus cuniculus): 0.647 µM
Structure (SMILES): O=C(O)CCCCC(/C=C/c1cc(F)ccc1OCc1ccccc1Cl)Cc1cc(F)c(O)c(F)c1 (single isomer, unassigned) [Example 8, E-8-[2-(2-Chlorobenzyloxy)-5-fluorophenyl]-6-(3,5-difluoro-4-hydroxybenzyl)oct-7-enoic acid]

IC50 (saphenous artery rings): 2.6 µM
Structure (SMILES): O=C(O)CCCCC(/C=C\c1cc(F)ccc1OCc1ccc(-c2ccc(C(F)(F)F)cc2)cc1)Cc1cc(F)c(O)c(F)c1 (single isomer, unassigned) [Example 7, Z-6-(3,5-Difluoro-4-hydroxybenzyl)-8-[5-fluoro-2-(4′-trifluoromethylbiphenyl-4-ylmethoxy)phenyl]oct-7-enoic acid]

IC50 (saphenous artery rings): 1.22 µM
Structure (SMILES): CC(C)(C)c1ccc(COc2ccccc2/C=C/C(CCc2ccc(C(=O)O)cc2)Cc2cc(F)c(O)c(F)c2)cc1 (single isomer, unassigned) [Example 14, E-4-[5-[2-(4-tert-Butylbenzyloxy)phenyl]-3-(3,5-difluoro-4-hydroxybenzyl)pent-4-enyl]benzoic acid]

IC50 (saphenous artery rings; Oryctolagus cuniculus): 0.043 µM
Structure (SMILES): O=C(O)CCCCN(CCc1cc(F)ccc1OCc1ccc(-c2ccc(C(F)(F)F)cc2)cc1)Cc1cc(F)c(O)c(F)c1 [Example 18, 5-{(3,5-Difluoro-4-hydroxybenzyl)-[2-(5-fluoro-2-{[4′-(trifluoromethyl)biphenyl-4-yl]methoxy}phenyl)ethyl]amino}pentanoic acid]

IC50 (saphenous artery rings): 0.96 µM
Structure (SMILES): O=C(O)CCCCC(/C=C/c1cc(F)ccc1OCc1ccc(-c2ccc(C(F)(F)F)cc2)cc1)Cc1cc(F)c(O)c(F)c1 (single isomer, unassigned) [Example 4, E-6-(3,5-Difluoro-4-hydroxybenzyl)-8-[5-fluoro-2-(4′-trifluoromethylbiphenyl-4-ylmethoxy)phenyl]oct-7-enoic acid]

Stimulation (n-fold) of heme-free sGC, Basal ([1]; 0.001 μM Example 13): 4.1 n-fold | Stimulation (n-fold) of heme-free sGC, +10 μM ODQ [1, 3]: 4.0 n-fold | Stimulation (n-fold) of heme-free sGC, Basal ([1]; 0.01 μM Example 13): 30.6 n-fold | Stimulation (n-fold) of heme-free sGC, +10 μM ODQ ([1]; 0.01 μM Example 13 + 10 μM ODQ): 27.1 n-fold | Stimulation (n-fold) of heme-free sGC, Basal ([1]; 0.1 μM Example 13): 94.4 n-fold | Stimulation (n-fold) of heme-free sGC, +10 μM ODQ ([1]; 0.1 μM Example 13 + 10 μM ODQ): 88.6 n-fold | Stimulation (n-fold) of heme-free sGC, Basal ([1]; 1 μM Example 13): 122.8 n-fold | Stimulation (n-fold) of heme-free sGC, +10 μM ODQ ([1]; 1 μM Example 13 + 10 μM ODQ): 118.5 n-fold | Stimulation (n-fold) of heme-free sGC, Basal ([1]; 10 μM Example 13): 126.3 n-fold | Stimulation (n-fold) of heme-free sGC, +10 μM ODQ ([1]; 10 μM Example 13 + 10 μM ODQ): 118.4 n-fold | Stimulation (n-fold) of heme-containing sGC, Basal ([2]; 0.001 μM Example 13): 1.7 n-fold | Stimulation (n-fold) of heme-containing sGC, +0.1 μM DEA/NO ([2]; 0.001 μM Example 13 + 0.1 μM DEA/NO): 26.3 n-fold | Stimulation (n-fold) of heme-containing sGC, +10 μM ODQ [2, 3]: 37.5 n-fold | Stimulation (n-fold) of heme-containing sGC, Basal ([2]; 0.01 μM Example 13): 6.7 n-fold | Stimulation (n-fold) of heme-containing sGC, +0.1 μM DEA/NO ([2]; 0.01 μM Example 13 + 0.1 μM DEA/NO): 31.2 n-fold | Stimulation (n-fold) of heme-containing sGC, +10 μM ODQ ([2]; 0.01 μM Example 13 + 10 μM ODQ): 38.8 n-fold | Stimulation (n-fold) of heme-containing sGC, Basal ([2]; 0.1 μM Example 13): 19.2 n-fold | Stimulation (n-fold) of heme-containing sGC, +0.1 μM DEA/NO ([2]; 0.1 μM Example 13 + 0.1 μM DEA/NO): 40.2 n-fold | Stimulation (n-fold) of heme-containing sGC, +10 μM ODQ ([2]; 0.1 μM Example 13 + 10 μM ODQ): 43.8 n-fold | Stimulation (n-fold) of heme-containing sGC, Basal ([2]; 1 μM Example 13): 24.2 n-fold | Stimulation (n-fold) of heme-containing sGC, +0.1 μM DEA/NO ([2]; 1 μM Example 13 + 0.1 μM DEA/NO): 43.2 n-fold | Stimulation (n-fold) of heme-containing sGC, +10 μM ODQ ([2]; 1 μM Example 13 + 10 μM ODQ): 52.2 n-fold | Stimulation (n-fold) of heme-containing sGC, Basal ([2]; 10 μM Example 13): 36.2 n-fold | Stimulation (n-fold) of heme-containing sGC, +0.1 μM DEA/NO ([2]; 10 μM Example 13 + 0.1 μM DEA/NO): 62.0 n-fold | Stimulation (n-fold) of heme-containing sGC, +10 μM ODQ ([2]; 10 μM Example 13 + 10 μM ODQ): 63.7 n-fold | Effect of combination with the NO donor DEA/NO on sGC stimulation ([2]; combination with DEA/NO): no synergistic effect | Effect of the heme-dependent sGC inhibitor ODQ on the sGC activation ([2]; with ODQ, effect is in fact increased): not blocked | IC50 (saphenous artery rings): 0.0245 µM
Structure (SMILES): CC(C)(C)c1ccc(COc2ccccc2/C=C/C(CCc2ccc(C(=O)O)cc2)Cc2cc(F)c(O)c(F)c2)cc1 (single isomer, unassigned) [Example 13, E4-[5-[2-(4-tert-Butylbenzyloxy)phenyl]-3-(3,5-difluoro-4-hydroxybenzyl)pent-4-enyl]benzoic acid]

IC50 (saphenous artery rings; Oryctolagus cuniculus): 2.7 µM
Structure (SMILES): O=C(O)CCCCC(/C=C\c1cc(F)ccc1OCc1ccc(-c2ccc(C(F)(F)F)cc2)cc1)Cc1cc(F)c(O)c(F)c1 (single isomer, unassigned) [Example 6, Z-6-(3,5-Difluoro-4-hydroxybenzyl)-8-[5-fluoro-2-(4′-trifluoromethylbiphenyl-4-ylmethoxy)phenyl]oct-7-enoic acid]
